# Measured values as given in patent US7863326B2, “Pharmaceutical compositions comprising ascorbic acid for the treatment of fungal superinfections and fungal recurrences” (Polichem S.A., priority 2003, dated 2011).
# Experiments:
# Candida [1] = assay: Double-blind placebo-controlled study of preventing Candida reinfection after miconazole in women with recurrent vaginal candidiasis; type: in vivo
# Text: Forty women with an exacerbation of recurrent vaginal candidiasis underwent a follow up preventative therapy with ascorbic acid. Most important inclusion criteria were: adult women in fertile age (18-50); ≧3 episodes of acute vaginal candidiasis in the last 12 months; acute vaginal candidiasis in the last 14 days; eradication of Candida (fresh examination) after an appropriate miconazole treatment. Exclusion criteria were: severe vaginal infections; HIV positivity; diabetes; pregnant women. The design was double blind, parallel groups versus placebo.
# After completion of the standard treatment with miconazole, all the responders (patients with eradication of Candida at the end of treatment) were randomized to a standardized preventative vaginal application of ascorbic acid (in form of gel, containing 7.1% ascorbic acid as the only active ingredient, same composition as per the Example 1) or to an undistinguishable placebo. The product was applied once daily in the evening, before going to bed, for 6 consecutive days. The 6-day cycle was repeated monthly for 6 consecutive months, starting on the first month immediately after patient randomization; during the following 5 months, the therapeutic cycle with ascorbic acid was started on the day after termination of cyclic menses. Primary endpoint of the study was the occurrence of episodes of Candida reinfection, confirmed by fresh examination of the vaginal smear. In case of reinfection, this was treated with a further standard miconazole treatment and the follow up with ascorbic acid was continued immediately after confirmation of microbiological eradication. All patients in the ascorbic acid group terminated the study, 2 patients of placebo group were lost to follow up. […] The protection factor of ascorbic acid against Candida reinfection was 46% in this investigation.
# Candida [2] = assay: Randomized double-blind placebo-controlled study of preventing Candida superinfection after standard metronidazole treatment; type: in vivo, patients
# Experimental: Two hundred patients with a negative microbiology of their vaginal specimen after a standard metronidazole treatment have been included in a controlled study aimed at the evaluation of ascorbic acid capability to prevent Candida superinfection in those patients. The study was randomized, double blind, parallel groups versus placebo. As active treatment, a 6-day course of vaginal tablets, containing 250 mg silicon-coated ascorbic acid as per the Example 2, was given once monthly for 3 months starting after menses. Placebo was undistinguishable from active treatment. Ninety-five patients in the active group and 92 respectively in the placebo group terminated the study and were included in the efficacy analysis. […] The protection factor of ascorbic acid against Candida superinfection in this experiment was 40%.
# [3] = tested on: experimental renal candidiasis; conditions: rats, orally supplemented to the diet; evident at very low dose, disappearing at a higher dose level; cited from earlier work
smiles,measurement,setting,value
"O=C1O[C@H]([C@@H](O)CO)C(O)=C1O [ascorbic acid, L-ascorbic acid]",episodes of reinfection,"Candida [1]; 7.1% ascorbic acid vaginal gel once daily for 6 days, cycle repeated monthly for 6 months, reinfection confirmed by fresh examination of vaginal smear",15 episodes
same,acute infection:patient rate,"Candida [1]; 7.1% ascorbic acid vaginal gel, 6-day cycles monthly for 6 months",0.75 /6 months
same,protection factor against Candida reinfection,"Candida [1]; versus placebo, 6 months",46%
same,patients with Candida superinfection (percent of group),"Candida [2]; vaginal tablets with 250 mg silicon-coated ascorbic acid, 6-day course once monthly for 3 months",9%
same,patients with Candida superinfection,"Candida [2]; vaginal tablets with 250 mg silicon-coated ascorbic acid, 6-day course once monthly for 3 months, 95 patients analysed",9 patients
same,protection factor against Candida superinfection,"Candida [2]; versus placebo, 3 months",40%
same,effect on the resistance to experimental renal candidiasis,[3],inconclusive
